Entries after “also recorded” stand apart in the source; their conditions may differ. Like-named read-outs stand apart in the source and are kept apart here.
Experiments:
[1] = tested on: Zucker Diabetic Fatty (ZDF) rats; conditions: 150 mg/kg/day, 8 weeks; cited from earlier work
[2] = Form conversion and degradation under thermal stress
Method: Studies were also conducted to evaluate the likelihood for conversion and degradation under thermal stress.

[3] = Moisture sorption analysis; assay type: physicochemical; conditions: 25° C.
Method: Moisture Sorption Analysis was performed with a Hiden IGAsorp Moisture Sorption Instrument. […] The samples were allowed to equilibrate to an asymptotic weight at each point for a maximum of 4 hours. […] The resulting samples after desorption were dried at 80° C. for two hours and analyzed by XRPD.

[4] = Slurry studies of solid form inter-conversion; assay type: physicochemical; conditions: for propensity of inter-conversion of the solid form in slurry: room temperature, absence of light, up to 14 days, solvents per substance (water, IPA, CH2Cl2, toluene, n-heptane, EtOAc, MeCN, THF, t-AmOH); for Slurries: diazoxide potassium salt, room-temperature slurry
[5] = tested on: healthy volunteers
Method: (§1) A randomized double-blind, placebo-controlled clinical trial was conducted in 24 healthy volunteers. They were randomized in a 2:1 ratio of treated to placebo. […] The dose was administered once per day in the morning for a period of 7 days. A number of lipid parameters were measured at baseline and again on day 7 including fasting triglycerides, total cholesterol, LDL cholesterol, HDL cholesterol, and non-HDL cholesterol. Additionally, blood pressure was measured on a daily basis.

[6] = tested on: hypertriglyceridemic patients; assay: Clinical study in 12 hypertriglyceridemic patients (formulation U / K′ crossover): lipids; assay type: in vivo, human; conditions: 435 mg/day diazoxide choline once per day, 15 days
Method: A clinical study was conducted in 12 hypertriglyceridemic patients. […] Treatment continued for 16 days. The endpoint of the study was percentage change from baseline to day 15 of triglycerides, total cholesterol, LDL cholesterol, HDL cholesterol and non-HDL cholesterol. Lipid parameters were measured at baseline and on days 7 and 15. Blood pressure was collected at multiple time points.

[7] = tested on: healthy volunteers; remark: listed apart in the source
Method: as §1
In PK008, the dose was administered as one and one ½ tablet formulation K′.

[8] = Excipient compatibility study for diazoxide choline salt; assay type: physicochemical
[9] = tested on: Zucker rats; conditions: oral 1-10 mg/kg/day for 14 days; cited from earlier work
[10] = 60° C., closed environment, protected from light, 7 and 14 days, XRPD, DSC, HPLC
[11] = Study EC004, 435 mg, 7 days, Baseline
[12] = Study EC004, 435 mg, 7 days, End of treatment
[13] = Study TR002, 508 mg, 49 days, Baseline
[14] = Study TR002, 508 mg, 49 days, End of treatment

For `CC1=Nc2ccc(Cl)cc2S(=O)(=O)N1` [Diazoxide, 7-chloro-3-methyl-2H-1,2,4-benzothiadiazine 1,1 dioxide, reference compound], the hepatic lipid contents [1] is given as “decreased hepatic triglycerides, long chain acyl-CoA and cholesterol contents”, the “conversion and degradation under thermal stress” value (“conversion and degradation” below) [2, 10] is given as “no conversion or degradation” and the “water absorbed at 60% RH” value [3] is given as “approximately 0.04 wt %”. For the same molecule, the “water absorbed at 90% RH” value [3] was roughly 0.20 wt %, the “Moisture sorption (hygroscopicity)” value ([3]; listed as Free form) was “no hysteresis” and the “propensity of inter-conversion of the solid form in slurry” value (from here on “propensity”) [4] was “did not convert to alternate crystal forms”.

In the case of `CC1=Nc2ccc(Cl)cc2S(=O)(=O)[N-]1.C[N+](C)(C)CCO` [Diazoxide choline salt Form B], the “conversion and degradation” value [2] was “Stable after 14 days at”, the “water absorbed at 60% RH” value ([3]; listed as Form B) was 7.4 wt % and the “propensity” value ([4]; listed as Form B) was “form conversion was not observed; also recorded: Stable after 14 days in”.

For `CC1=Nc2ccc(Cl)cc2S(=O)(=O)[N-]1.C[N+](C)(C)CCO` [Diazoxide choline salt Form A], the “conversion and degradation” value [2] was “Started to convert to Form”, the “Moisture sorption (hygroscopicity)” value [3] was “hygroscopic solid” and the “water absorbed at 60% RH” value ([3]; listed as Form A) was 2.4 wt %. The “propensity” value ([4]; listed as Form A) was “conversion to Form B was observed after seven days; also recorded: readily converted to Form B in all slurry solvents utilized; also recorded: Converted to Form B after”.

For `CC1=Nc2ccc(Cl)cc2S(=O)(=O)[N-]1.C[N+](C)(C)CCO` [Choline diazoxide salt], the “conversion and degradation” value [2] was “did not show any significant degradation”, the “HDL cholesterol, mean ± SEM” value ([5]; 300 mg diazoxide/day, Baseline) was 49 ± 3.3 mg/dL and the “LDL cholesterol, mean ± SEM” value ([5]; 300 mg diazoxide/day, Baseline) was 111 ± 5.8 mg/dL. The “Total cholesterol, mean ± SEM” value ([5]; 300 mg diazoxide/day, Baseline) was 175 ± 7.5 mg/dL, the “Triglycerides, mean ± SEM” value ([5]; 300 mg diazoxide/day, Baseline) was 76 ± 7.8 mg/dL and the “non-HDL cholesterol, mean ± SEM” value ([5]; 300 mg diazoxide/day, Baseline) was 126 ± 6.6 mg/dL. For the same molecule, the “HDL cholesterol, Percent change from baseline” value ([5]; 300 mg diazoxide/day, Day 7) was 8.2%, the “HDL cholesterol, mean ± SEM” value ([5]; 300 mg diazoxide/day, Day 7) was 53 ± 2.9 mg/dL and the “LDL cholesterol, Percent change from baseline” value ([5]; 300 mg diazoxide/day, Day 7) was −5.4%. For the same molecule, the “LDL cholesterol, mean ± SEM” value ([5]; 300 mg diazoxide/day, Day 7) was 105 ± 4.9 mg/dL, the “Total cholesterol, Percent change from baseline” value ([5]; 300 mg diazoxide/day, Day 7) was −2.3% and the “Total cholesterol, mean ± SEM” value ([5]; 300 mg diazoxide/day, Day 7) was 171 ± 6.4 mg/dL. For the same molecule, the “Triglycerides, Percent change from baseline” value ([5]; 300 mg diazoxide/day, Day 7) was −13.2%, the “Triglycerides, mean ± SEM” value ([5]; 300 mg diazoxide/day, Day 7) was 66 ± 3.9 mg/dL and the “non-HDL cholesterol, Percent change from baseline” value ([5]; 300 mg diazoxide/day, Day 7) was −6.3%. The “non-HDL cholesterol, mean ± SEM” value ([5]; 300 mg diazoxide/day, Day 7) was 118 ± 5.5 mg/dL, the “reduction in total cholesterol, LDL cholesterol and non-HDL cholesterol vs placebo arm” value ([5]; baseline to day 7, 300 mg/day diazoxide as formulation U) was “greater for each lipid parameter than the corresponding reduction in the placebo arm” and the lipid response [6] was “marked reductions in triglycerides, total cholesterol, LDL cholesterol, and nonHDL cholesterol and a marked increase in HDL cholesterol”. For the same molecule, the Diastolic blood pressure [7, 11] was 69.4 mmHg, the Systolic blood pressure [7, 11] was 113.2 mmHg and the Diastolic blood pressure [7, 12] was 63.2 mmHg. It also gave a Systolic blood pressure [7, 12] of 113.5 mmHg, a Diastolic blood pressure [7, 13] of 77.7 mmHg and a Systolic blood pressure [7, 13] of 118.1 mmHg. For the same molecule, the Diastolic blood pressure [7, 14] was 67.0 mmHg, the Systolic blood pressure [7, 14] was 117.0 mmHg and the “propensity” value ([4]; listed as choline salt) was “no propensity of inter-conversion”.

In the case of `CC1=Nc2ccc(Cl)cc2S(=O)(=O)N1` [Diazoxide Control], the “1 Month 40° C./75% RH % (w/w)” value ([8]; one-month storage 40° C./75% RH) was 99.0 % (w/w) and the “1 Month 50° C. % (w/w)” value ([8]; one-month storage 50° C.) was 99.4 % (w/w).

In the case of `N#CNC(=NCCc1ccccc1Cl)c1cncc(N)c1` [KRN4884], the serum triglyceride levels [9] is given as “dose dependently reduce serum triglyceride levels”.

For `C1COCCO1.CC1=NS(=O)(=O)c2cc(Cl)ccc2[N-]1.CC1=NS(=O)(=O)c2cc(Cl)ccc2[N-]1.[K+].[K+]` [Diazoxide potassium salt Form F], the Thermal ([2]; diazoxide potassium salt, thermal stress, 7 days) was “Stable (7 days)”, the “Moisture sorption (hygroscopicity)” value [3] was “hygroscopic solid” and the Slurries [4] was “Converted to Form D”. The “propensity” value [4] was “readily converted to Form D in all slurry solvents utilized; also recorded: conversion to Form D was observed in all solvents”.

For `CC1=NS(=O)(=O)c2cc(Cl)ccc2[N-]1.CC1=NS(=O)(=O)c2cc(Cl)ccc2[N-]1.O.[K+].[K+]` [Diazoxide potassium salt Form D], the Slurries [4] was “Converted to Form D”.

With `CC1=NS(=O)(=O)c2cc(Cl)ccc2[N-]1.[Na+]` [Sodium diazoxide salt] the “conversion and degradation” value [2, 10] was “little propensity to change form or degrade”, the “water absorbed at 60% RH” value [3] was 1.2 wt % and the “water absorbed at 80% RH” value ([3]; 80% RH) was 6.6 wt %. The “propensity” value [4] was “no propensity of inter-conversion”.

In the case of `CC1=NS(=O)(=O)c2cc(Cl)ccc2[N-]1.[K+]` [Potassium diazoxide salt], the “conversion and degradation” value [2, 10] was “did not show any significant degradation”, the “water absorbed at 60% RH” value [3] was 5.4 wt % and the “water absorbed at 90% RH” value [3] was 38.3 wt %. The “propensity” value [4] was “no propensity of inter-conversion”.

— patent US9765043B2, “Salts of potassium ATP channel openers and uses thereof” (Essentialis, Inc., priority 2012, dated 2017)
